Test results published in a melting point compilation (Tetko et al.; mined from patent text by program, amines drawn as free bases though some values may be those of a salt).

SMILES	melting point
COc1ccc2cc(C(Br)Br)ccc2c1	116 °C
O=c1[nH]c(CCCn2ccnc2)nc2ccc(Cl)cc12	192 to 194 °C
CCCCCCCCn1c(C)cc2ccccc21	121 to 123 °C
Cc1cc2cc(Nc3ccnc4cc(-c5ccc(C=O)cc5)sc34)ccc2[nH]1	223 to 240 °C
N=C(NO)c1cccc2c1nc(-c1c(F)cccc1F)n2Cc1c(F)cccc1F	214 to 216 °C
O=C(C=Cc1cccnc1)NCCCCC1CCN(C(c2ccccc2)C2CCCCC2)CC1 (configuration not stated)	143 to 145 °C
CCn1c(=O)c2c(nc(/C=C/c3cc(OC)c4c(c3)OCO4)n2C)n(CC)c1=O	202 °C
Cc1ccccc1N1CCN(S(=O)(=O)CC23CCC(CC2=O)C3(C)C)CC1 (configuration not stated)	112 to 114 °C
CCOC(=O)c1cc(O)n(C)n1	151 to 153 °C
Cc1ccccc1C(=O)Nc1nc(C(Cl)(Cl)Cl)ns1	170 °C
CC(C)(C)c1csc(-c2cc3cc(O)ccc3o2)n1	179 to 180 °C
CC(=O)Nc1noc(C)c1Cl	121 to 122 °C
CCCCCS(=O)(=O)NC(=O)/C=C/c1cc(OC2CCOCC2)nn1Cc1ccc(Cl)cc1Cl	154 to 157 °C
CCOC(=O)C1=C(C(=O)OCC)C(c2cc(OC)c(OC)c(OC)c2)C(C(=O)OCC)=C(C)N1 (configuration not stated)	134 °C
CON(C)Cc1nc2c(N)nc3cc(-c4cccnc4)cnc3c2n1CC(C)(C)O	187 to 189 °C
COc1ccccc1N1Sc2ccccc2CC1=O	171 °C
Oc1ccc(C2=CCCCC2)cc1	115 to 119 °C
COc1ccc(CS[C@@H]2CN[C@H](C(=O)O)C2)cc1	198 to 200 °C
Cc1nc(N)c2nc(C)n(CCOc3ccccc3)c2c1C	176 to 177 °C
O=C1Nc2ccc([N+](=O)[O-])cc2/C1=C(/Nc1ccc(CN2CCCC2)cc1)c1ccccc1	45 to 50 °C
CN(Cc1ccc(NC(=O)C2=Cc3cc(-c4ccc(OC(F)(F)F)cc4)ccc3OCC2)cc1)C1CCOCC1	187 to 188 °C
CC#CC(C)(C)NC(=O)C(CC)Oc1ccc2ncc(Cl)cc2c1 (configuration not stated)	105 to 107 °C
CCCCc1c(C(=O)O)ccc2c(OC)cccc12	154 to 155 °C
Cn1cccc1-c1nc2cc(Cl)cc(CCc3ccccn3)c2o1	100 to 101 °C
O=C1C2C=CC(O2)C(=O)N1c1ccccc1	150 to 152 °C
O=[N+]([O-])c1cc(Cl)c2c(c1)C(F)(C(F)(F)F)C(F)(F)O2 (configuration not stated)	46 to 47 °C

SMILES	melting point
CCOC(=O)Cc1c(-c2ccc(OC)cc2)sc2c1c(=O)c(C(=O)OCC)cn2Cc1ccccc1F	199 to 201 °C
N#CC(C(=O)NC1CC1)C(=O)C1CC1 (configuration not stated)	136 to 138 °C
C=C1N=C(c2ccccc2F)c2cc(Cl)ccc2C(=O)C1N(C)C (configuration not stated)	224 to 226 °C
COc1ccc2c(Cc3c(Cl)cncc3Cl)nncc2c1	173 to 175 °C
CC(=O)NC[C@H]1CN(c2ccc(-c3noc(C)n3)c(F)c2)C(=O)O1	177 to 179 °C
CC(C)(C)C(=O)C=CC1C(C(=O)OC(C#N)c2cccc(Oc3ccccc3)c2)C1(C)C (configuration not stated)	89 °C
CCOC(=O)C1CC(O)CN1C(=O)c1ccc2c(c1)OCO2 (configuration not stated)	98 °C
Cc1[nH]c(=O)[nH]c1C(=O)c1ccc(F)cc1	289 to 292 °C
COc1c2c(c(C3CCCCC3)c3c4c(ccc13)OCO4)CNC2=O	244 to 246 °C
N#Cc1c(Br)c(-c2ccc(Cl)cc2)n(C(=O)c2ccccc2)c1Cl	179 to 181 °C
CC(CCc1c[nH]c2c(F)cc(F)cc12)N(CC1CC1)C1COc2c(F)ccc(C(N)=O)c2C1 (configuration not stated)	175 to 180 °C
CCOC(=O)C(C)(C)c1ccc(NC(C)=O)cc1	76 to 76.5 °C
CCOC(=O)COC(=O)CN1CCCCCC1=O	33.5 to 35 °C
CC1=C(/C=C/C(C)=C/C=C/C(C)=C/C(=O)OCOC(=O)Oc2ccc([N+](=O)[O-])cc2)C(C)(C)CCC1	35 to 36 °C
COc1ccc2oc3ccc(I)cc3c2c1C(=O)Nc1ccncc1	255 to 257 °C
CCn1c(C)c(C)c(=O)c(C(=O)O)c1-c1ccc(Cl)cc1	240 to 242 °C
CCCc1c(C#N)c2ccc(C(=O)OC)cc2n1Cc1ccccc1Cl	132 to 133 °C
CC(=O)Nc1ccc(F)c(-c2ccncc2)n1	254 to 256 °C
CCN1CCC(=O)N(c2ccccc2F)C1=S	101 to 104 °C
COc1ccc(C2NCCS2)cc1OC (configuration not stated)	54 to 56 °C
COCCOc1cc2ncc(C#N)c(O)c2cc1OCc1ccccc1	> 250 °C
Cn1cncc1C(O)(c1ccc(F)cc1)c1ccc2c(c1)c(-c1cccc(Cl)c1)nc1nnnn12 (configuration not stated)	200 °C
COc1nc(C)nc(OC)c1N1CCCn2c1nc1c(Cl)ccc(C(O)(C3CC3)C3CC3)c12	204 to 205 °C
O=C(O)CCCCN(C(=O)c1ccc(Cl)cc1)c1ccc2c(c1)CCC2	132 to 134 °C
O=C(O)C1=Cc2cc3c(cc2OC1C(F)(F)F)OCO3 (configuration not stated)	246 to 248 °C
O=C(O)C(Cl)(Cl)CCCCCCCCCCCCC(Cl)(Cl)C(=O)O	114 °C

SMILES	melting point
Cn1nc(Sc2cc(C(F)(F)F)ccc2C(=O)O)n(C)c1=O	211 °C
CC(=O)N1CCN(c2cc3c(c(N)c2F)c(=O)c(C(=O)O)cn3C2CC2)CC1C (configuration not stated)	269 to 271 °C
COCc1cc2c(s1)CCc1cc(=O)n(-c3ccc(C)cc3)nc1-2	132 to 133 °C
Cn1cc(O)c(=O)c2ccc(C#N)cc21	305 °C
Cc1c(-c2ccccc2)oc2c(OCCCCCBr)cccc2c1=O	75 to 76 °C
COc1ccc(C(=O)c2ccccc2)c([N+](=O)[O-])c1O	137 to 139 °C
CC(=O)C(C(=O)OC(C)(C)C)C(=O)c1ccc(C(=O)C(C(C)=O)C(=O)OC(C)(C)C)cc1 (configuration not stated)	94 to 96 °C
CCCc1c(OCCCOc2ccc(C(=O)C(=O)O)cc2)ccc(C(C)=O)c1O	129 to 130 °C
COC(=O)CCCc1cc2nc(Cl)ccc2n1S(=O)(=O)c1cccc2nccnc12	71 °C
COC(=O)c1cc(NC(C)=O)ccc1OC(C)=O	133 to 135 °C
CCCNC(=O)Nc1ccc(N2CCOCC2)cc1C(=O)NCC1CCN(C(c2ccccc2)c2ccccc2)CC1	215 to 217 °C
CC(C)(C)OC(=O)NCCNC(=O)c1nc(Cl)sc1Br	142 to 144 °C
COC(=O)c1ccc(C=CC(=O)C=Cc2ccc(C(=O)OC)cc2)cc1	206 to 210 °C
Cc1cc(Cc2cnc(NCCCN(Cc3ccccc3)c3ccccn3)[nH]c2=O)cnc1C	95 to 99 °C
Cc1ccc(NC(=O)C(C)(C)CCCOc2cc(C)ccc2C)c(C)c1	80 to 82 °C
O=C(CCCCCNC(=O)C/C=C/c1ccccc1)NO	127 to 128 °C
CSc1ccc(-c2nc(SC)c(C#N)c(=O)n2-c2ccc(Cl)cc2)cc1	203 to 205 °C
CC(C#N)c1ccc2nc(N)sc2c1 (configuration not stated)	165 °C
CNS(=O)(=O)c1ccccc1Nc1nc(Nc2ccc3c(c2)CCCC(=O)N3CC(=O)N2CCN(C)CC2)ncc1Cl	148 to 151 °C
O=C(N[C@@H]1CONC1=O)OCc1ccccc1	135 to 136 °C
COc1ccc(Cn2c(C)cc3c(=O)[nH][nH]c(=O)c32)cc1	300 °C
CSC1CCC2C3CCC4=CC(=O)C=CC4(C)C3(F)C(OC(C)=O)CC12C (configuration not stated)	169 to 170 °C
COc1cc(C(C)C)c2c(c1)S(=O)(=O)N(COC(=O)c1sccc1Cl)C2=O	138 to 140 °C
CCCCC(=O)N(Cc1ccc(-c2ccccc2-c2nc(=O)s[nH]2)cc1)c1sccc1C(=O)O	148 to 149 °C
CC1(C)CC(=O)OC1CC(=O)c1ccc(Cl)cc1 (configuration not stated)	76 to 80 °C
CC(=O)c1c(O)cccc1OCC(O)COc1ccccc1C (configuration not stated)	101 to 102 °C

SMILES	melting point
Cc1cnc2c(c1)nc(C)n2-c1ccccc1	77 to 79 °C
CC(C)(C)OC(=O)N1CC=C(c2ccc(NCc3ccccc3)cc2)CC1	120 to 121 °C
CCc1c(C(=O)C(N)=O)c2c([N+](=O)[O-])cccc2n1Cc1ccccc1	207 to 208 °C
Fc1ccc(C2CCN(CCN(CCN3CCC(c4ccc(F)cc4)CC3)c3ccccc3)CC2)cc1	104 to 105 °C
O=C(Nc1cccc(-n2nc(C(F)(F)F)cc2C(F)(F)F)c1)c1c(F)cccc1F	142 to 143 °C
C[C@@H](NC(=CC(=O)OC(C)(C)C)Cc1cc(F)c(F)cc1F)c1ccccc1	76 °C
FC(F)(F)c1cccc(CCc2nnc(-c3ccnc4[nH]ccc34)o2)c1	176 to 177 °C
O=C1c2cccc3cc4ccccc4c(c23)C(=O)N1CCCNCCN1C(=O)c2cccc3cc4ccccc4c(c23)C1=O	260 °C
CC1CC(=O)C2OCC1O2 (configuration not stated)	122 to 125 °C
COC(=O)c1ccc(Cl)c(C#N)c1	193 °C
CCON=C(CC)C1=C(OC(=O)c2ccccc2)CC(c2c(C)cc(C)cc2C)CC1=O (configuration not stated)	94 to 95.5 °C
O=C1N(Cc2cccc(C(F)(F)F)n2)c2ccccc2C12COc1cc3c(cc12)OCCO3 (configuration not stated)	195 to 196 °C
O=C(c1ccccc1)N1CC(c2ccccc2)c2ccccc21 (configuration not stated)	127 to 129 °C
Oc1ccc2ccc(Oc3c(Cl)cc(C(F)(F)F)cc3Cl)cc2c1	98 °C
CC1(C)N=C(c2ccccc2F)c2cc(N)ccc2-n2cnnc21	288 °C
CCOC(=O)n1c(C(=O)c2cncnc2)c(NC(C)=O)c2ccc(Cl)cc21	214 to 215 °C
O=S(=O)(c1ccccc1)c1c[nH]c2ccc(N3CCN(Cc4ccccc4)CC3)nc12	238 to 239 °C
C[Si](C)(C)CCOCn1ccc2c(=O)[nH]ncc21	147 to 148 °C
COC(=O)Oc1c(OC)c(OC)c(OC(=O)OC)c2ccccc12	53 to 54 °C
N#CC1CN1C(=O)CNC=O (configuration not stated)	51 to 56 °C
CCOC(=O)COc1ccc(NC(=O)OCc2ccccc2)cc1	85 to 86 °C
CC(O)CNc1ccnc2cc(Cl)ccc12 (configuration not stated)	168 to 170 °C
COc1cc(C)c2c(c1)-c1c([nH]c3ccccc13)C2	208 °C
Oc1cccc(CCCn2ccnn2)c1	74 to 75 °C
